The values below come from ChEMBL document CHEMBL3217653, “Design and synthesis of -amino alcohol based -lactamisatin chimeras and preliminary analysis of in vitro activity against the protozoal pathogen Trichomonas vaginalis” (Medchemcomm, 2013).

The subject of series [1] is Trichomonas vaginalis. The series can be described thus: Antimicrobial activity against Trichomonas vaginalis G3 assessed as growth inhibition after 24 hrs by hemocytometry. It is filed as functional. As to conditions: G3, 24 h.
Series [2] deals with Trichomonas vaginalis. Put plainly: Antimicrobial activity against Trichomonas vaginalis G3 assessed as growth inhibition at 50 uM after 24 hrs by hemocytometry. The class given is functional. As to conditions: G3, 24 h, read-out: GI.
Series [3] can be described thus: Cytotoxicity against human HeLa cells assessed as cell viability at 10 uM after 24 hrs by trypan blue assay relative to bleomycin. The class given is cell-based. As to conditions: read-out: Activity.

For the molecule `O=C1C(=O)N(CC(CO)N[C@@H]2C(=O)N(c3ccc(Cl)cc3)[C@@H]2/C=C/c2ccccc2)c2ccccc21` (some centres undefined), the IC50 in series [1] is 24.7 µM. Moreover, in series [2], the inhibition of growth at 50 µM worked out at 76.2%.
Consider `Cc1ccc2c(c1)C(=O)C(=O)N2CC(CO)N[C@@H]1C(=O)N(c2ccc(Cl)cc2)[C@@H]1/C=C/c1ccccc1` (some centres undefined), for which the IC50 in series [1] was found to be 14.6 µM. In series [2], the inhibition of growth at 50 µM is 97.6%.
For `O=C1C(=O)N(CC(CO)N[C@@H]2C(=O)N(c3ccc(Cl)cc3)[C@@H]2/C=C/c2ccccc2)c2ccc(F)cc21` (some centres undefined), in that order: 27.4 µM and 77.2%.
Consider `Cc1ccc(N2C(=O)[C@@H](NC(CO)CN3C(=O)C(=O)c4ccccc43)[C@H]2/C=C/c2ccccc2)cc1` (relative stereo), for which the IC50 in series [1] came out at 19.2 µM. In addition, the inhibition of growth at 50 µM in series [2] is 95.3%.
Consider `O=C1C(=O)N(CC(CO)N[C@@H]2C(=O)N(C3CCCCC3)[C@@H]2/C=C/c2ccccc2)c2ccccc21` (relative stereo), for which the IC50 in series [1] is 18.5 µM. Further, in series [2], the inhibition of growth at 50 µM was determined as 93.6%.
With `Cc1ccc(N2C(=O)[C@@H](NC(CO)CN3C(=O)C(=O)c4cc(C)ccc43)[C@H]2/C=C/c2ccccc2)cc1` (relative stereo), the inhibition of growth at 50 µM in series [2] is 56%.
For `Cc1ccc2c(c1)C(=O)C(=O)N2CC(CO)N[C@@H]1C(=O)N(C2CCCCC2)[C@@H]1/C=C/c1ccccc1` (relative stereo), the inhibition of growth at 50 µM in series [2] amounted to 70.8%.
As to `Cc1ccc(N2C(=O)[C@@H](NC(CO)CN3C(=O)C(=O)c4cc(Cl)ccc43)[C@H]2/C=C/c2ccccc2)cc1` (relative stereo), the inhibition of growth at 50 µM in series [2] turned out to be 59.8%.
With `O=C1C(=O)N(CC(CO)N[C@@H]2C(=O)N(c3ccc(Cl)cc3)[C@@H]2/C=C/c2ccccc2)c2ccc(Cl)cc21` (relative stereo), in series [3], the viability at 24 h, 10 µM amounted to 30%. Further, the IC50 in series [1] amounted to 9.73 µM. Besides, in series [2], the inhibition of growth at 50 µM was 97.1%.
Take `O=C1C(=O)N(CC(CO)N[C@@H]2C(=O)N(C3CCCCC3)[C@@H]2/C=C/c2ccccc2)c2ccc(Cl)cc21` (relative stereo): the inhibition of growth at 50 µM in series [2] stood at 61.8%.
On the same count and under the same terms, the figure for `Cc1ccc(N2C(=O)[C@@H](NC(CO)CN3C(=O)C(=O)c4cc(F)ccc43)[C@H]2/C=C/c2ccccc2)cc1` (relative stereo) is 71.9%; for `O=C1C(=O)N(CC(CO)N[C@@H]2C(=O)N(C3CCCCC3)[C@@H]2/C=C/c2ccccc2)c2ccc(F)cc21` (relative stereo) it is 64.6%.
